Experimental data from patent US20230159467A1, “NOVEL COMPOUNDS USEFUL IN THE TREATMENT AND/OR PREVENTION OF A DISEASE, DISORDER OR CONDITION ASSOCIATED WITH ANGIOTENSIN II” (Vicore Pharma AB, priority 2020, published 2023).
Like-named read-outs stand apart in the source and are kept apart here.

What was measured:
CYP2C9 = CYP2C9 (Homo sapiens, UniProt P11712); test: CYP450 inhibition assay, pooled human liver microsomes, diclofenac substrate; settings: both, human, pooled human liver microsomes, pH 7.4, probe diclofenac
CYP2D6 [1] = molecular target: T1, CYP2D6 (Homo sapiens, UniProt P10635); test: CYP450 inhibition assay, pooled human liver microsomes, dextromethorphan substrate; settings: for inhibition at 10 min, 10 µM: both, human, pooled human liver microsomes, pH 7.4, probe dextromethorphan
CYP3A [2] = test: CYP450 inhibition assay, pooled human liver microsomes, testosterone substrate; settings: at 10 μM; for inhibition at 10 min, 10 µM: both, human, pooled human liver microsomes, pH 7.4, probe testosterone, CYP 450 Inhibition CYP3A testosterone
Description: The compound was tested at a single concentration (10 μM) with 0.1% DMSO. […] The reaction was initiated by adding a NADPH-generating system. The reaction was allowed for 10 min and stopped by transferring the reaction mixture to acetonitrile/methanol. Samples were mixed and centrifuged. Supernatants were used for HPLC-MS/MS of the respective metabolite. The activity of human cytochrome P450 (CYP) enzymes were determined by following the formation of a metabolite of the probe substrate. The following enzymes were evaluated for inhibition using the listed reference substrates and reference inhibitors:
CYP1A—phenacetin (reference inhibitor furafylline), CYP2B6—bupropion (reference inhibitor clopidogre), CYP2C8-amodiaquine (reference inhibitor montelukast), CYP2C9—diclofenac (reference inhibitor sulfaphenazole), CYP2C19—omeprazole (reference inhibitor oxybutynin), CYP2D6—dextromethorphan (reference inhibitor quinidine), CYP3A—midazolam (reference inhibitor ketoconazol) and CYP3A—testosterone (reference inhibitor ketoconazol). The reference inhibitors were tested in each assay at multiple concentrations to obtain an IC50 value. Peak areas corresponding to the metabolite were recorded. The percent of control activity was calculated by comparing the peak area in the presence of the test compound to the control samples containing the same solvent. Subsequently, the percent inhibition was calculated by subtracting the percent control activity from 100. The IC50 value (concentration causing a half-maximal inhibition of the control value) was determined by non-linear regression analysis of the concentration-response curve using the Hill equation.

CYP1A = molecular target: T2, CYP1A (Homo sapiens, UniProt P05177); test: CYP450 inhibition assay, pooled human liver microsomes, phenacetin substrate; settings: for inhibition at 10 min, 10 µM: both, human, pooled human liver microsomes, pH 7.4, probe phenacetin
T2 sequence (P05177 1-516): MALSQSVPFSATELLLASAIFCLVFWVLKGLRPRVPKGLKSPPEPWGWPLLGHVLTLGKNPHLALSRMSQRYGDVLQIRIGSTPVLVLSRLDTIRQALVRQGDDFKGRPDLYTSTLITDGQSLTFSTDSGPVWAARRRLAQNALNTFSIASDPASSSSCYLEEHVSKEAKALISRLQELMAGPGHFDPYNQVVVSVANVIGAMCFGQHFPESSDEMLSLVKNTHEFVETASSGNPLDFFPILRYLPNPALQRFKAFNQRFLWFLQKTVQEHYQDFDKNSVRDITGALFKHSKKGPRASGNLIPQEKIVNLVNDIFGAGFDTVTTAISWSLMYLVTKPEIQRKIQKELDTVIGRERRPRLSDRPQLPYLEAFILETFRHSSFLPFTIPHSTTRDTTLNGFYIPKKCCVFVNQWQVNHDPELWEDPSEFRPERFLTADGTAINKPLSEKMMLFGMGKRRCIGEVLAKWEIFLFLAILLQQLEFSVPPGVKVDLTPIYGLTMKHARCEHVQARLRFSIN

[3] = Stability in human liver microsomes; assay type: in vitro ADME; settings: half-life
Description: (§1) Stability in liver microsomes. Human, mouse and rat liver microsomes were used to assess the metabolic stability for the compounds. Metabolic stability was determined in 0.5 mg/mL human, mouse or rat liver microsomes at a compound concentration of 1 μM in 100 mM potassium phosphate buffer (pH 7.4) in a total incubation volume of 500 μL by Eurofins. The assay matrix was: human liver microsomes: mixed gender and pool of 50, rat liver microsomes: male, Sprague-Dawley, pool of 100 or more and mouse liver microsomes: male,CD-1, pool of 250 or more. Final microsomal protein concentration: 0.1mg/mL. The test concentration was 0.1 μM with 0.01% DMSO, 0.25% acetonitrile and 0.25% methanol by default. […] The reaction was initiated by adding NADPH-generating system and was incubated for 0, 15, 30, 45, and 60 min. The reaction was stopped by transferring the incubation mixture to acetonitrile/methanol. Samples were then mixed and centrifuged. Four reference compounds were tested in each assay. Propranolol and imipramine are relatively stable, whereas verapamil and terfenadine are readily metabolized inhuman liver microsomes. Samples were analyzed by HPLC-MS/MS using selected reaction monitoring. The HPLC system consisted of a binary LC pump with autosampler, a C-18 column, and a gradient. Peak areas corresponding to the test compound were recorded. The compound remaining was calculated by comparing the peak area at each time point to time zero. The half-life was calculated from the slope of the initial linear range of the logarithmic curve of compound remaining (%) vs. time, assuming first order kinetics. In addition, the intrinsic clearance (Clint) was calculated.^19,20

[4] = Kinetic solubility in PBS pH 7.4; assay type: physicochemical; settings: Dulbecco's PBS buffer, aqueous buffer, kinetic from dmso stock; PBS pH 7.4, 24 h room temperature, 2% DMSO
Description: Kinetic solubility. Dulbecco's PBS buffer was used (NaCl 137 mM, KCl 2.7 mM, Na2HPO4 8.1 mM, KH2PO4 1.5 mM with pH 7.4). The test compound is prepared at 200 μM in the PBS buffer from a 10 mM DMSO stock solution. The final DMSO concentration is 2%. The buffer samples were mixed thoroughly followed by incubation at room temperature for 24 h. At the end of the incubation, the buffer samples were centrifuged and supernatants were then injected for the HPLC analysis. A calibration standard of the test compound was prepared at 200 μM in methanol/water (3/2, v/v) from a 10 mM DMSO stock solution on the day of HPLC analysis. The analysis was conducted by HPLC-UV/VIS with photodiode array detection, with monitoring at 205, 230, 260, and 300 nm wavelengths. The HPLC system consisted of a C18 column using a gradient of A and B (A=12 mM ammonium formate, 6 mM formic acid in water, pH 4.0, B=6 mM ammonium formate, 3 mM formic acid acetonitrile/water (9/1, v/v)). Reference compounds used were metoprolol, rifampicin, ketoconazole, phenytoin, haloperidol, simvastatin, diethylstilbestrol, and tamoxifen, ranking from fully soluble (200 μM) to poorly soluble (<1μM). […] The range of the assay was approximately 0.5 μM to 200 μM. The chromatographic purity (%) was determined as the peak area of the principal peak relative to the total integrated peak areas in the HPLC chromatogram of the calibration standard.

CYP2C19 [5] = molecular target: T3, CYP2C19 (Homo sapiens, UniProt P33261); test: CYP450 inhibition assay, pooled human liver microsomes, omeprazole substrate; settings: both, human, pooled human liver microsomes, pH 7.4, probe omeprazole
CYP2C8 = molecular target: T4, CYP2C8 (Homo sapiens, UniProt P10632); test: CYP450 inhibition assay, pooled human liver microsomes, amodiaquine substrate; settings: for inhibition at 10 min, 10 µM: both, human, pooled human liver microsomes, pH 7.4, probe amodiaquine
T4 sequence (P10632 1-490): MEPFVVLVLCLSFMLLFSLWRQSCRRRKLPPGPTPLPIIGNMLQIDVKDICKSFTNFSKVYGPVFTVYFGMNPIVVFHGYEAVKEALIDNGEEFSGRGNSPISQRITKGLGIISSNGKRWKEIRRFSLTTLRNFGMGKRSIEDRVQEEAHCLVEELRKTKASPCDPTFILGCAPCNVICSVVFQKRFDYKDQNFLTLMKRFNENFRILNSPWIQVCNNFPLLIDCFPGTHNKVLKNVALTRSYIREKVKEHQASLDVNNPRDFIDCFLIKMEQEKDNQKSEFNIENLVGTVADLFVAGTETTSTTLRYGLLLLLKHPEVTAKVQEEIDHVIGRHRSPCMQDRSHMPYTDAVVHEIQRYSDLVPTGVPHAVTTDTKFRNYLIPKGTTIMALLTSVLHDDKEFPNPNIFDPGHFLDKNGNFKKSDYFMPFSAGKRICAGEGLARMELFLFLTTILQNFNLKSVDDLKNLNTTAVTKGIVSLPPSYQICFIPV

CYP3A [6] = test: CYP450 inhibition assay, pooled human liver microsomes, midazolam substrate; settings: for inhibition at 10 min, 10 µM: both, human, pooled human liver microsomes, pH 7.4, probe midazolam
CYP2B6 = molecular target: T5, CYP2B6 (Homo sapiens, UniProt P20813); test: CYP450 inhibition assay, pooled human liver microsomes, bupropion substrate; settings: for inhibition at 10 min, 10 µM: both, human, pooled human liver microsomes, pH 7.4, probe bupropion
T5 sequence (P20813 1-491): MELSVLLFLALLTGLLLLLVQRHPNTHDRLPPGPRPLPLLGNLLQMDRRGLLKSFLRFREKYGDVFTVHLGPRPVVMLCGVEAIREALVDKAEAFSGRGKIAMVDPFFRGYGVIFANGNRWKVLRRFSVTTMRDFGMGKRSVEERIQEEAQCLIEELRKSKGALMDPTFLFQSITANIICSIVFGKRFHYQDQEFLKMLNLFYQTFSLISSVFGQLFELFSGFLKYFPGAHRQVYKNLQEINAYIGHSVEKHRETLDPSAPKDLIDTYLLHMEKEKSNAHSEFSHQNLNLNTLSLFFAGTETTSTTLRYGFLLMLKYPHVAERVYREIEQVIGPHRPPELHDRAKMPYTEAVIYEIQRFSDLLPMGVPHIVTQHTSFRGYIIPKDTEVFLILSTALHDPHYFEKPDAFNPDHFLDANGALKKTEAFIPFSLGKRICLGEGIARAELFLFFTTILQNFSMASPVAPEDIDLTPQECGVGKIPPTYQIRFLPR

[7] = Stability in mouse liver microsomes; assay type: in vitro ADME; settings: half-life
Description: as §1

[8] = Stability in rat liver microsomes; assay type: in vitro ADME; settings: half-life
Description: as §1

CYP3A [9] = settings: at 10 μM; midazolam substrate; from Bioorg. Med. Chem. 2010, 18 (12), 4570-4590; cited from earlier work
CYP2D6 [10] = molecular target: T1, CYP2D6; settings: at 10 μM; from Bioorg. Med. Chem. 2010, 18 (12), 4570-4590; cited from earlier work
CYP2C19 [11] = molecular target: T3, CYP2C19; settings: at 10 μM; from Bioorg. Med. Chem. 2010, 18 (12), 4570-4590; cited from earlier work

T1 sequence (P10635 whole entry): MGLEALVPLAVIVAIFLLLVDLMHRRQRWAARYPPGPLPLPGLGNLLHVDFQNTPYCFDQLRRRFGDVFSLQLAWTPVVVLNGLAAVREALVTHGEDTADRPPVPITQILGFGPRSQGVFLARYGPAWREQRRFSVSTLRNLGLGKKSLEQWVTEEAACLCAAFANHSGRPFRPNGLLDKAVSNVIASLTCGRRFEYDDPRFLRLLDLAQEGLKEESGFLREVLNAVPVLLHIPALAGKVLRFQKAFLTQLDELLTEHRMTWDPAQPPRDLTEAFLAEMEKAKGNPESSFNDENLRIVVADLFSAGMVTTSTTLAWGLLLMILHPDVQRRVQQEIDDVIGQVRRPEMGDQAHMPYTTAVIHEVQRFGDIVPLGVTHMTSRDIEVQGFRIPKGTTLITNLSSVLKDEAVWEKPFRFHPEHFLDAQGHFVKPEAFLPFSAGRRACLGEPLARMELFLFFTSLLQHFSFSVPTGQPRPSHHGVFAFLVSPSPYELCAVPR
Sequence of CYP2C9 (P11712 whole entry): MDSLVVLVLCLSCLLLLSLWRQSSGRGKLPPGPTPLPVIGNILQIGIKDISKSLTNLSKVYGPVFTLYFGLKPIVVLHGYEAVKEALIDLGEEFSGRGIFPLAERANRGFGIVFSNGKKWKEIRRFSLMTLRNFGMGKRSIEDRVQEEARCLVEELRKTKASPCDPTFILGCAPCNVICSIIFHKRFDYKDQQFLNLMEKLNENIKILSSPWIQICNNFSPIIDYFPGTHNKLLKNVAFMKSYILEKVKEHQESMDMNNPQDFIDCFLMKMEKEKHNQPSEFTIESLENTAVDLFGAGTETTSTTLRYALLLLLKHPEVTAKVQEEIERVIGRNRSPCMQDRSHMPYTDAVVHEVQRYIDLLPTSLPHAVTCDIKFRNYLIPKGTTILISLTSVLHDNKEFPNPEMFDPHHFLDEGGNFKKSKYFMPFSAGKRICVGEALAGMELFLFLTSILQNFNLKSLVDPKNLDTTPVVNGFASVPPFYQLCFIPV
T3 sequence (P33261 whole entry): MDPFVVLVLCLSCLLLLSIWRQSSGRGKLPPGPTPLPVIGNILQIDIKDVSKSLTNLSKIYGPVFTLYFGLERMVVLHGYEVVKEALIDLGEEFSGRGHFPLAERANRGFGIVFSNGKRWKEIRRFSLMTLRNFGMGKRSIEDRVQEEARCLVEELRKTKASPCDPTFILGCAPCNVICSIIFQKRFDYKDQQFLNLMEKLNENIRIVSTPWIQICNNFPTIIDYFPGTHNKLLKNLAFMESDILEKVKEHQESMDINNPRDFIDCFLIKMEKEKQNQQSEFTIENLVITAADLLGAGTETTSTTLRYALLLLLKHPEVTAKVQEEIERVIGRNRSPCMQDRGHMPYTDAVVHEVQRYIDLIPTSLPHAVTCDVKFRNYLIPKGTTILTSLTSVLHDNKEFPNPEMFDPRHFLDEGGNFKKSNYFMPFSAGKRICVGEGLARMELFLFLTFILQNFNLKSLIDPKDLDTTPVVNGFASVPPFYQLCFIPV

| Structure (SMILES) | inhibition at 10 min, 10 µM (CYP2C9) [%] | inhibition at 10 min, 10 µM (CYP2D6 [1]) [%] | inhibition at 10 min, 10 µM (CYP3A [2]) [%] | inhibition at 10 min, 10 µM (CYP1A) [%] | Stability in liver microsomes HLM [3] [min] | solubility kinetic at 24 h [4] [µM] | inhibition at 10 min, 10 µM (CYP2C19 [5]) [%] | inhibition at 10 min, 10 µM (CYP2C8) [%] | inhibition at 10 min, 10 µM (CYP3A [6]) [%] | inhibition at 10 min, 10 µM (CYP2B6) [%] | Stability in liver microsomes MLM [7] [min] | Stability in liver microsomes RLM [8] [min] | other results |
| --- | --- | --- | --- | --- | --- | --- | --- | --- | --- | --- | --- | --- | --- |
| COC(=O)[N-]S(=O)(=O)c1sc(CC(C)C)cc1-c1ccc(Cn2ccnc2C(C)(C)C)cc1.[K+] [Example 12B, Potassium ((3-(4-((2-(tert-butyl)-1H-imidazol-1-yl)methyl)phenyl)-5-isobutylthiophen-2-yl)sulfonyl)(methoxycarbonyl)amide] | 29 | 1.6 | 6.8 | 8.3 | >60 | > 200 | 36 | 73 | -11.6 | 25 | 39 | >60 | – |
| CCCCOC(=O)[N-]S(=O)(=O)c1ccc(CC(C)C)cc1-c1ccc(Cn2ccnc2C(C)(C)O)cc1.[K+] [Example 7B, Potassium (butoxycarbonyl)((4′-((2-(2-hydroxypropan-2-yl)-1H-imidazol-1-yl)methyl)-5-isobutyl-[1,1′-biphenyl]-2-yl)sulfonyl)amide] | 74 | 16 | 3.1 | -50 | 28 | > 200 | 52 | 68 | -10.7 | 40 | 20 | 22 | – |
| CCCCOC(=O)[N-]S(=O)(=O)c1sc(CC(C)C)cc1-c1ccc(Cn2ccnc2)cc1.[Na+] [Example 13, Sodium ((3-(4-((1H-imidazol-1-yl)methyl)phenyl)-5-isobutylthiophen-2-yl)sulfonyl)(butoxycarbonyl)amide, reference compound] | – | – | 84 | 77 | 36 | 198 | 93 | 69 | – | 53 | 39 | 20 | CYP 450 Inhibition CYP2D6 (CYP2D6 [1]; at 10 μM): 90%; CYP 450 Inhibition CYP3A testosterone (CYP3A [2]): 90%; CYP 450 Inhibition CYP1A (CYP1A; at 10 μM): 89%; CYP 450 Inhibition CYP2C8 (CYP2C8; at 10 μM): 82%; CYP 450 Inhibition CYP3A midazolam (CYP3A [6]; at 10 μM, midazolam substrate): 93%; CYP 450 Inhibition CYP2B6 (CYP2B6; at 10 μM): 63% |
| CCCCOC(=O)NS(=O)(=O)c1sc(CC(C)C)cc1-c1ccc(Cn2ccnc2)cc1 [Example C21, butyl ((3-(4-((1H-imidazol-1-yl)methyl)phenyl)-5-isobutylthiophen-2-yl)sulfonyl)carbamate] | – | – | – | – | – | – | – | – | – | – | – | – | CYP 450 Inhibition CYP3A midazolam (CYP3A [9]): 82%; CYP 450 Inhibition CYP2D6 (CYP2D6 [10]): 41%; CYP 450 Inhibition CYP2C19 (CYP2C19 [11]): 67% |
| CCCCOC(=O)[N-]S(=O)(=O)c1ccc(CC(C)C)cc1-c1ccc(Cn2ccnc2C(C)(C)C)cc1.[K+] [Example 2B, Potassium ((4′-((2-(tert-butyl)-1H-imidazol-1-yl)methyl)-5-isobutyl-[1,1′-biphenyl]-2-yl)sulfonyl)(butoxycarbonyl)amide] | 91 | 15 | 27 | 4.5 | 11 | 183 | 71 | 81 | 16 | 57 | 10 | 8 | – |
